The results in this text go back to US6680379B1, “Organic anion transporter genes and proteins” (Metabasis Therapeutics, Inc., priority 1999, dated 2004).

The structures appear in SMILES notation.

In assay [1] the target is T1, hOAT2A (Homo sapiens, UniProt Q9Y694).
T1 sequence (Q9Y694 1-546 isoform Q9Y694-2): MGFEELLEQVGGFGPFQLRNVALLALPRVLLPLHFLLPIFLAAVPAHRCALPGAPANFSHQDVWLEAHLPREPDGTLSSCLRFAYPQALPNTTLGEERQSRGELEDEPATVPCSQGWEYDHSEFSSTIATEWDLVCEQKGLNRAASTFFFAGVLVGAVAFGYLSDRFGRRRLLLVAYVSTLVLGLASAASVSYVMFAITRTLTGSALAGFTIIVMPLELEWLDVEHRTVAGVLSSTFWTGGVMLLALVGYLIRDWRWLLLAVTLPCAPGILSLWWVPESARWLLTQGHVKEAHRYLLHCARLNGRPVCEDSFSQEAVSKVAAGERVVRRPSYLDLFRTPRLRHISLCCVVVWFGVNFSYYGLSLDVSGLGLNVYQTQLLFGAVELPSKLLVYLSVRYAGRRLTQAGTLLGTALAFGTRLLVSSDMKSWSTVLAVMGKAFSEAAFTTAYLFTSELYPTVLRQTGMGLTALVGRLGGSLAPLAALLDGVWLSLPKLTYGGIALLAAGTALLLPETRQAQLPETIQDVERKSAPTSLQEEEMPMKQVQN
In words: Competition assay of 3H-PAH uptake in EcR293/OAT2A cells. Type of assay: cell-based. The arrangement: Isolation of Full-length Human OAT2A and OAT2B cDNA; expressed in transfected cells; host or cells: EcR293 (Invitrogen). Particulars: 100 μM competitor.

The target of assay [2] is T1, hOAT2A. Kind of assay: 3H-PAH uptake in EcR293 cells stably containing pIND(sp1)-hOAT2A, ponasterone induced. Particulars: EcR293, 1.25 μg/ml ponasterone for 24 hours.
Excerpt: Vector pIND(sp1) (Invitrogen) contains the ecdysone-inducible promoter (EcRE). […] After cloning, the vectors were separately transfected into cell line EcR293 (Invitrogen). […] The pVgRXR vector constitutively expresses the ecdysone receptor and the retinoid X receptor (RXR). The ecdysone receptor and RXR form a heterodimer which, upon activation by the hormone ecdysone, binds to a promoter containing the EcRE. The pVgRXR vector was maintained within the EcR293 cell line by selection with 400 μg/ml zeocin. The pIND(sp1)-hOAT plasmids contain a neomycin resistance marker, and cells stably integrating the plasmids were selected for by culturing the cells in media supplemented with 400 μg/ml G418. After two weeks of selection, individual colonies appeared and were isolated and expanded. […] The cells were then subjected to standard transport assays.
Expression of hOAT1 at high levels can be easily achieved by inducing with ponasterone for twenty-four (24) hours.

On to `O=C1OC(c2ccc(O)c(S(=O)(=O)O)c2)(c2ccc(O)c(S(=O)(=O)O)c2)c2c(Br)c(Br)c(Br)c(Br)c21` [BSP, sulfobromophthalein], for which the “effect on uptake of 3H-PAH in EcR293/OAT2A cells” value at hOAT2A [1] was “blocked”; at hOAT2A [1] (listed as sulfobromophthalein), “competed”. On to `Nc1ccc(C(=O)NCC(=O)O)cc1` [PAH, p-aminohippurate], for which the “3H-PAH uptake, ponasterone induced versus non-induced cells (hOAT2A)” value at hOAT2A [2] is “approximately 2.6 fold”.
